The text below walks through data of patent US7118744B2, “Immunogenic compositions for induction of anti-tumor immunity” (Yeda Research and Development Co., Ltd., priority 1997, dated 2006).

In one assay the test system is Meth A Sarcoma Cells. Description: Rejection of Meth A tumor challenge in immunized mice. The assay is classed as in vivo. Particulars: BALB/c mice immunized with 100 μg CDR-based peptide. The method, then:
(a) The Meth A tumor is a transplantable 3-methylcholantrene-induced sarcoma of BALB/c origin (Old et al., 1962) that has three mutations in the p53 coding sequence (Arai et al., 1986). The cells were grown in DMEM containing 10% heat-inactivated fetal calf serum (FCS), and passaged through BALB/c mice to select for tumorogenicity. For challenge, mice were injected intradermally with 10^6 Meth A cells. […] Rejection was scored as the disappearance of the tumor mass within 20 days after tumor challenge.
To learn whether immunization with anti-p53 mAb might influence in vivo the development of a tumor bearing a mutated form of the p53 molecule, groups of BALB/c female mice were immunized as above with either mAb 240, mAb 246, mAb 421 or mAb 9E 10. The mice were challenged intradermally with 10^6 Meth A tumor cells 10 days after the boost. Non-immunized mice were also tested.
Immunization of BALB/c mice with peptides V–IX of Example 3 was carried out as described for the whole mAbs in Materials and Methods, section iv, using 100 μg of peptide, and then assayed for the development of anti-p53 antibodies.

The next assay deals with p53. Description: Induction of anti-p53 antibodies in immunized mice, ELISA on wild type p53. The assay is classed as in vivo, mouse. Particulars: BALB/c mice immunized with 100 μg of peptide. The method, then:
E Coli BL21 (DE3) cells transformed with the T7 expression vector containing regularly spliced mouse p53 cDNA were used to express wild type or mutant p53 as previously described (Shohat-Foord et at., 1991; Wolkowicz et al., 1995). For protein induction, IPTG at a final concentration of 0.4 mM was added when the cells had reached an O.D.600 of 0.8–1.0. Three hours after induction, the cells were harvested from a 200 ml culture by centrifugation, and the pellet was resuspended in 5 ml of ice-cold lysis buffer (20 mM Tris-HCl, pH: 7.4; 500 mM NaCl; 10% glycerol; 1 mM EDTA; 1 mM PMSF; 5 μg/ml leupeptine; 10 μg/ml aprotinin and 0.1% NP40). The lysate was subjected to sonication for 10 cycles of 15 s of sonication followed by 15 s of gentle swirling. The solicited sample was subjected to two cycles of freeze-thaw and then centrifuged for 10 min at 10.000× g. […]
[…] Antibodies were measured after booster immurdzation.
For the ELISA assay flat bottom maxi-sorb plates (Nunc, Roskilde, Denmark) were coated with 50 μl per well of mutant or wild type p53 at a concentration of 10 μg/ml. […] After washing, the plates were incubated with the substrate, p-nitrophenil phosphate disodium (Sigma) and read using an ELISA reader at 405 nm. Sera manifesting an O.D. reading, after substraction of the background, of 0.3 or greater, were scored as positive.
(In general: ELISA stands for enzyme-linked immunosorbent assay.)

Ends that are not written are not given here.

Consider “AVYYCARSGSRFDYWGEGTT [Peptide VIII, includes CDR3 of the heavy chain of mAb 248]”, for which the “Incidence of Rejected Tumors” value in the assay on Meth A Sarcoma Cells is 4/5.
On to “GDINPNNGYTIYNQKVKGKA [Peptide VII, includes CDR2 of the heavy chain of mAb 246]”, for which the “Incidence of Rejected Tumors” value in the assay with Meth A Sarcoma Cells was 5/5.
On to “YYCQHIRELTRSEGGPS [Peptide V, includes CDR3 of the light chain of mAb 240]”, for which, in the assay on p53, the “incidence of mice developing IgG anti-p53 antibodies (ELISA assay)” value is 8/10. For the same sequence, the “Incidence of Rejected Tumors” value with Meth A Sarcoma Cells is given as 4/5.
Taken in the same sequence, the figures for “GVYYCWQGTHSPLTFGAGTK [Peptide VI, includes CDR3 of the light chain of mAb 421]” were 7/10 and 5/5.
In the case of “VYFCQQSNSWPVHARGGGTK [Peptide IX, includes CDR3 of the light chain of mAb 248]”, the “Incidence of Rejected Tumors” value with Meth A Sarcoma Cells is 4/5.
